The record followed here is patent publication US20240132457A1, “3-(2-(BENZO[D]THIAZOL-2-YL)-2-(PHENYLSUFONAMIDO)ETHYL)BENZIMIDAMIDE DERIVATIVES AND RELATED COMPOUNDS AS TMPRSS2 INHIBITORS FOR THE TREATMENT OF VIRAL INFECTIONS” (INTEGERBIO, INC., priority 2020, published 2024).

This assay concerns the target T1, Recombinant human TMPRSS2 protein (106-492 aa) (Homo sapiens, UniProt O15393).
T1 construct: Human TMPRSS2-(AA 106-492)-; purchased CusaBio CSB-YP023924HU; host or cells: yeast
In words: TMPRSS2 Assay 1 (Example 41), fluorogenic Boc-Gln-Ala-Arg-AMC cleavage. In kind it is biochemical. The following applies: TMPRSS2 10 nM, substrate 25 μM, 20 min pre-incubation. Here is the method:
The enzyme (TMPRSS2, CusaBio cat #CSB-YP023924HU. Recombinant human TMPRSS2 protein (106-492 aa)N-terminal 6×His-tagged (“6×His” disclosed as SEQ ID NO: 4), expressed in yeast cells; MW=44.8 kDa, lyophilized from 20 mM: Tris HCl, 0.5 M NaCl, 6% Trehalose, pH 8.0, >85% purity as determined by SDS-PAGE. Uniprot: 015393; 10 nM in the reaction) and substrate (Boc-Gln-Ala-Arg-AMC; Enzo Cat #BML-P237-0005, MW=581.76 Da. 25 μM in the reaction) were prepared in Reaction Buffer (50 mM Tris-HCl pH 8, 150 mM NaCl, 0.005% Brij35, 1% DMSO). After the enzyme solution was delivered into the reaction well, the compounds in DMSO were delivered to the reaction mixture by using Acoustic Technology (Echo 550, LabCyte Inc. Sunnyvale, CA) in nanoliter range. After 20 min pre-incubation, the substrate solution was delivered into the reaction well to initiate the reaction. The enzyme activities were monitored every 5 min as a time-course measurement of the increase in fluorescence signal from fluorescently-labeled peptide substrate for 120 min. at room temperature. Data was analyzed by taking slope*(signal/time) of linear portion of measurement. The slope was calculated using Excel, and the curve fits were performed using Prism software.

T1 sequence (O15393 106-492): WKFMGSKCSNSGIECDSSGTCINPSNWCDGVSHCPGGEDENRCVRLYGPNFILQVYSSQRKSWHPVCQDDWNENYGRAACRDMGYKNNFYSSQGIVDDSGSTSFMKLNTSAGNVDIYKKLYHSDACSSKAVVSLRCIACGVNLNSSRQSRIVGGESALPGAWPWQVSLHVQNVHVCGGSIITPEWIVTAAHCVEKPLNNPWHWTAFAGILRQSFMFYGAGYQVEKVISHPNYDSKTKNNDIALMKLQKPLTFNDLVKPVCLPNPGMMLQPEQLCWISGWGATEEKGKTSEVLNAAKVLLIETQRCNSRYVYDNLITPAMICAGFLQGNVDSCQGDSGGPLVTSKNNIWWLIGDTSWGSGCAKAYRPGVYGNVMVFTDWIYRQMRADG

As a reminder, the IC50 is the midpoint of a concentration-inhibition curve. Turning to `N=C(N)c1cccc(CC(NS(=O)(=O)c2cccc(Br)c2)c2nccs2)c1` (centres unmarked) [Compound 4, 3-[2-(3-Bromobenzenesulfonamido)-2-(1,3-thiazol-2-yl)ethyl]benzene-1-carboximidamide], the IC50 was more than 10 µM. As to `N=C(N)c1cccc(CC(NS(=O)(=O)c2cccc(-c3ccc(Cl)cc3Cl)c2)c2nccs2)c1` (single isomer, unassigned) [5 (Isomer 1, batch 1), 3-[2-{2′,4′-Dichloro-[1,1′-biphenyl]-3-sulfonamido}-2-(1,3-thiazol-2-yl)ethyl]benzene-1-carboximidamide], the IC50 was less than 10 µM. With `N=C(N)c1cccc(CC(NS(=O)(=O)c2ccccc2)c2nc3cccc(Cl)c3s2)c1` (single isomer, unassigned) [13 (enantiomer 1), 3-[2-Benzenesulfonamido-2-(7-chloro-1,3-benzothiazol-2-yl)ethyl]benzene-1-carboximidamide], the IC50 is more than 10 µM.

Take `Cn1cnnc1[C@H](Cc1cccc(C(=N)N)c1)NS(=O)(=O)c1cccc(-c2ccc(Cl)cc2Cl)c1` [Compound 6, 3-[(2S)-2-{2′,4′-Dichloro-[1,1′-biphenyl]-3-sulfonamido}-2-(4-methyl-4H-1,2,4-triazol-3-yl)ethyl]benzene-1-carboximidamide]: the IC50 is more than 10 µM. In the case of `N=C(N)c1cccc(CC(NS(=O)(=O)c2cccc(-c3ccc(Cl)cc3Cl)c2)c2nc3ccccc3s2)c1` (single isomer, unassigned) [3 (enantiomer 2), 3-[2-(1,3-Benzothiazol-2-yl)-2-{2′,4′-dichloro-[1,1′-biphenyl]-3-sulfonamido}ethyl]benzene-1-carboximidamide], the IC50 was less than 10 µM. Regarding `N=C(N)c1cccc(CC(NS(=O)(=O)c2ccccc2)c2nc3cccc(Cl)c3s2)c1` (centres unmarked) [Compound 13, 3-[2-Benzenesulfonamido-2-(7-chloro-1,3-benzothiazol-2-yl)ethyl]benzene-1-carboximidamide], the IC50 is less than 10 µM. With `N=C(N)c1cccc(CC(NS(=O)(=O)c2cccc(-c3ccc(Cl)cc3Cl)c2)c2nc3ccccc3s2)c1` (single isomer, unassigned) [3 (enantiomer 1), 3-[2-(1,3-Benzothiazol-2-yl)-2-{2′,4′-dichloro-[1,1′-biphenyl]-3-sulfonamido}ethyl]benzene-1-carboximidamide] the figure was more than 10 µM; with `N=C(N)c1cccc(CC(NS(=O)(=O)c2ccccc2)c2nc3c(s2)CNCC3)c1` (centres unmarked) [Compound 10, 3-(2-Benzenesulfonamido-2-{4H,5H,6H,7H-[1,3]thiazolo[5,4-c]pyridin-2-yl}ethyl)benzene-1-carboximidamide], more than 10 µM. In the case of `N=C(N)c1cccc(CC(NS(=O)(=O)c2ccccc2)c2nc3cc(C(F)(F)F)ccc3s2)c1` (centres unmarked) [Compound 12, 3-{2-Benzenesulfonamido-2-[5-(trifluoromethyl)-1,3-benzothiazol-2-yl]ethyl}benzene-1-carboximidamide], the IC50 is less than 10 µM. `COCCN(C)c1cccc2nc(C(Cc3cccc(C(=N)N)c3)NS(=O)(=O)c3ccccc3)sc12` (centres unmarked) [Compound 17, 3-(2-Benzenesulfonamido-2-{7-[(2-methoxyethyl)(methyl)amino]-1,3-benzothiazol-2-yl}ethyl)benzene-1-carboximidamide]: the IC50 is less than 10 µM.

With `CN1CCN(c2cccc3nc(C(Cc4cccc(C(=N)N)c4)NS(=O)(=O)c4ccccc4)sc23)CC1` (centres unmarked) [Compound 15, 3-{2-Benzenesulfonamido-2-[7-(4-methylpiperazin-1-yl)-1,3-benzothiazol-2-yl]ethyl}benzene-1-carboximidamide], the IC50 was less than 10 µM.

As to `N=C(N)c1cccc(CC(NS(=O)(=O)c2ccccc2)c2nc3ccc(O)cc3s2)c1` (centres unmarked) [Compound 20, 3-[2-(benzenesulfonamido)-2-(6-hydroxy-1,3-benzothiazol-2-yl)ethyl]benzamidine], the IC50 is less than 10 µM. Regarding `N=C(N)c1cccc(CC(NS(=O)(=O)c2ccccc2)c2nc3ccccc3s2)c1` (single isomer, unassigned) [Compound 1 (enantiomer 2, batch 1), 3-[2-Benzenesulfonamido-2-(1,3-benzothiazol-2-yl)ethyl]benzene-1-carboximidamide], the IC50 is less than 10 µM. In the case of `N=C(N)c1cccc(CC(NS(=O)(=O)c2cccc(-c3ccc(Cl)cc3Cl)c2)c2nccs2)c1` (single isomer, unassigned) [Compound 5 (Isomer 2), 3-[2-{2′,4′-Dichloro-[1,1′-biphenyl]-3-sulfonamido}-2-(1,3-thiazol-2-yl)ethyl]benzene-1-carboximidamide], the IC50 is less than 10 µM. To `COc1ccc2nc(C(Cc3cccc(C(=N)N)c3)NS(=O)(=O)c3ccccc3)sc2c1` (single isomer, unassigned) [11 (enantiomer 1), 3-[2-Benzenesulfonamido-2-(6-methoxy-1,3-benzothiazol-2-yl)ethyl]benzene-1-carboximidamide] belongs more than 10 µM. As to `COc1ccc2nc(C(Cc3cccc(C(=N)N)c3)NS(=O)(=O)c3ccccc3)sc2c1` (single isomer, unassigned) [11 (enantiomer 2), 3-[2-Benzenesulfonamido-2-(6-methoxy-1,3-benzothiazol-2-yl)ethyl]benzene-1-carboximidamide], the IC50 is less than 10 µM.

As to `N=C(N)c1cccc(CC(NS(=O)(=O)c2ccccc2)c2nc3ccc(C(F)(F)F)cc3s2)c1` (single isomer, unassigned) [14 (enantiomer 2)], the IC50 was less than 10 µM.

Turning to `N=C(N)c1cccc(CC(NS(=O)(=O)c2ccccc2)c2ncc[nH]2)c1` (centres unmarked) [Compound 7, 2-[2-{3-[Amino(iminiumyl)methyl]phenyl}-1-benzenesulfonamidoethyl]-1H-imidazol-3-ium dichloride], the IC50 was more than 10 µM. With `N=C(N)c1cccc(CC(NS(=O)(=O)c2ccccc2)c2nc3ccccc3s2)c1` (single isomer, unassigned) [Compound 1 (enantiomer 1, batch 1), 3-[2-Benzenesulfonamido-2-(1,3-benzothiazol-2-yl)ethyl]benzene-1-carboximidamide] the figure was more than 10 µM.

For `Cc1ccc2sc(C(Cc3cccc(C(=N)N)c3)NS(=O)(=O)c3ccccc3)nc2c1` (centres unmarked) [Compound 9, 3-[2-Benzenesulfonamido-2-(5-methyl-1,3-benzothiazol-2-yl)ethyl]benzene-1-carboximidamide], the IC50 was less than 10 µM. On to `N=C(N)c1cccc(CC(NS(=O)(=O)c2ccccc2)c2nc3cccc(Cl)c3s2)c1` (single isomer, unassigned) [13 (enantiomer 2), 3-[2-Benzenesulfonamido-2-(7-chloro-1,3-benzothiazol-2-yl)ethyl]benzene-1-carboximidamide], for which the IC50 was less than 10 µM. For the compound `N=C(N)c1cccc(CC(NS(=O)(=O)c2ccccc2)c2nc3cnccc3s2)c1` (centres unmarked) [Compound 18, 3-(2-Benzenesulfonamido-2-{[1,3]thiazolo[4,5-c]pyridin-2-yl}ethyl)benzene-1-carboximidamide], the IC50 was less than 10 µM.

`COc1ccc2nc(C(Cc3cccc(C(=N)N)c3)NS(=O)(=O)c3ccccc3)sc2c1` (centres unmarked) [Compound 8, 3-[2-Benzenesulfonamido-2-(6-methoxy-1,3-benzothiazol-2-yl)ethyl]benzene-1-carboximidamide]: the IC50 was less than 10 µM. With `CN(C)CCN(C)c1cccc2nc(C(Cc3cccc(C(=N)N)c3)NS(=O)(=O)c3ccccc3)sc12` (centres unmarked) [Compound 16, 3-[2-Benzenesulfonamido-2-(7-{[2-(dimethylamino)ethyl](methyl)amino}-1,3-benzothiazol-2-yl)ethyl]benzene-1-carboximidamide] the figure was more than 10 µM; with `N=C(N)c1cccc(CC(NS(=O)(=O)c2ccccc2)c2nc3cccnc3s2)c1` (centres unmarked) [Compound 19, 3-(2-Benzenesulfonamido-2-{[1,3]thiazolo[5,4-b]pyridin-2-yl}ethyl)benzene-1-carboximidamide], less than 10 µM; with `N=C(N)c1cccc(CC(NS(=O)(=O)c2ccccc2)c2nc3cc(C(F)(F)F)ccc3s2)c1` (single isomer, unassigned) [12 (enantiomer 2), 3-{2-Benzenesulfonamido-2-[5-(trifluoromethyl)-1,3-benzothiazol-2-yl]ethyl}benzene-1-carboximidamide], less than 10 µM. In the case of `N=C(N)c1cccc(C[C@H](NS(=O)(=O)c2ccccc2)c2nc3ccc(C(F)(F)F)cc3s2)c1` [14 (batch 1), 3-[(2S)-2-Benzenesulfonamido-2-[6-(trifluoromethyl)-1,3-benzothiazol-2-yl]ethyl]benzene-1-carboximidamide], the IC50 is less than 10 µM. For the compound `N=C(N)c1cccc(CC(NS(=O)(=O)c2ccccc2)c2nc3cc(C(F)(F)F)ccc3s2)c1` (single isomer, unassigned) [12 (enantiomer 1), 3-{2-Benzenesulfonamido-2-[5-(trifluoromethyl)-1,3-benzothiazol-2-yl]ethyl}benzene-1-carboximidamide], the IC50 was more than 10 µM. Turning to `N=C(N)c1cccc(CC(NS(=O)(=O)c2ccccc2)c2nc3ccc(C(F)(F)F)cc3s2)c1` (single isomer, unassigned) [14 (enantiomer 1)], the IC50 is more than 10 µM.
